These results are taken from patent publication US20260242320A1, “USE OF CANNABIDIOL DERIVATIVE IN PREPARATION OF MEDICAMENT” (priority 2023, published 2026).

A value given as a limit tells only on which side of the number the result lay.

In one test the test system is BV-2 cellular viability. The experiment in a line: Cell viability / cytotoxicity by crystal violet staining. The class given is cell-based. The conditions noted are these: Mus musculus, BV-2, read-out: Cellular toxicity (IC50 inhibiting BV-2 cellular viability). On the procedure: 100 μL of culture medium were transferred to a black 96-well plate for later use. Following removal of old culture medium, 100 μL of 4% paraformaldehyde was added for fixation. Fixation was performed for 5 minutes. Paraformaldehyde was then removed, and 100 μL of 0.05% crystal violet was added. The resultant mixture was incubated for 15 minutes, after which time crystal violet was removed and the mixture was slowly rinsed with water three times. Next, 150 μL of ethanol was added, and the mixture was incubated for 15 minutes. After incubation, the absorbance was measured at 540 nm using a spectrophotometer. Viability (%)=100× Fluorescence values of the dosing group/Fluorescence values of the blank group.
Cell viability was determined by crystal violet staining. Briefly, BV-2 cells were treated as indicated in the NO assay. The media was removed, and then 4% paraformaldehyde was added to fix the cells for 5 min. Cells were stained with 100 μL 0.05% crystal violet for 15 min and washed with water 2 times. Next, 150 μL of ethanol was added to each well, and the plate was incubated for 15 min at room temperature. Absorbance at 540 nm was measured using a SYNERGY H1 Microplate Reader.

Test [1] has as its system LPS-induced proinflammatory factor nitric oxide (NO) in immunocompetent BV-2 cells. The experiment in a line: NO assay: inhibition of LPS-induced NO overproduction in BV-2 cells. The class given is cell-based. The conditions noted are these: Mus musculus, BV-2, 24 h, read-out: Antineuroinflammatory activity (IC50 inhibiting LPS-induced NO). The procedure: BV-2 cells were seeded at a density of 5×10^4 cells per milliliter in 96-well plates. After 24 h incubation, the media was removed and changed to DMEM without FBS and penicillin-streptomycin. LPS (200 ng/mL) and different concentrations of compounds were added. After 24 h treatment, 100 μL of media was transferred to flat black 96-well micro fluor plates, and then, 10 μL of 0.05 mg/mL 2,3-diaminonaphthalene was added and incubated in the dark for 15 min. 5 μL of NaOH (3 M) was subsequently added to each well to quench the reaction. NO inhibition ratio was analyzed by a SYNERGY H1 Microplate Reader (BioTek Instruments, Carlsbad, CA, USA) with excitation at 360 nm and emission at 430 nm. The fluorescence value of the LPS-treated group was set as 100%.

With `C=C(C)[C@@H]1CCC(C)=C[C@H]1c1c(O)cc(CCCCCCC)cc1O` [Compound 12f, (1′R,2′R)-4-Heptyl-5′-methyl-2′-(prop-1-en-2-yl)-1′,2′,3′,4′-tetra-hydro-[1,1′-biphenyl]-2,6-diol], the IC50 in the test on BV-2 cellular viability turned out to be 14.1 ± 0.7 µM; in test [1], 42 ± 9.3 µM.

In the case of `C=C(C)[C@@H]1CCC(C)=C[C@H]1c1c(O)cc(CCC)cc1O` [Compound 12b, (1′R,2′R)-5′-Methyl-2′-(prop-1-en-2-yl)-4-propyl-1′,2′,3′,4′-tetra-hydro-[1,1′-biphenyl]-2,6-diol, reference compound], the IC50 in the test with BV-2 cellular viability was 18.3 ± 4.4 µM; in test [1] it was 5.3 ± 2.9 µM.

On to `C=C(C)[C@@H]1CCC(C)=C[C@H]1c1c(O)cc(CCCCC)cc1OCCC` [Compound 3a, (1′R,2′R)-5′-Methyl-4-pentyl-2′-(prop-1-en-2-yl)-6-propoxy-1′,2′,3′,4′-tetrahydro-[1,1′-biphenyl]-2-ol], for which the IC50 (in the test with BV-2 cellular viability; in test [1]) was over 200 µM throughout.

As for `C#CCOc1cc(CCCCC)cc(O)c1[C@@H]1C=C(C)CC[C@H]1C(=C)C` [Compound 5a, (1′R,2′R)-5′-Methyl-4-pentyl-2′-(prop-1-en-2-yl)-6-(prop-2-yn-1-yloxy)-1′,2′,3′,4′-tetrahydro-[1,1′-biphenyl]-2-ol], the IC50 in the test on BV-2 cellular viability is 65 ± 7.9 µM; in test [1] it was 99.6 ± 16.3 µM.

`C=C(C)[C@@H]1CCC(C)=C[C@H]1c1c(OCC)cc(CCCCC)cc1OCC` [Compound 2b, (1R,2R)-2′,6′-Diethoxy-5-methyl-4′-pentyl-2-(prop-1-en-2-yl)-1,2,3,4-tetrahydro-1,1′-biphenyl]: the IC50 (with BV-2 cellular viability; in test [1]) was over 200 µM throughout.

Turning to `C=CCOc1cc(CCCCC)cc(OCC=C)c1[C@@H]1C=C(C)CC[C@H]1C(=C)C` [Compound 4b, (1R,2R)-2′,6′-Bis(allyloxy)-5-methyl-4′-pentyl-2-(prop-1-en-2-yl)-1,2,3,4-tetrahy-dro-1,1′-biphenyl], the IC50 (with BV-2 cellular viability; in test [1]) was over 200 µM each time.

For `C=C(C)[C@@H]1CCC(C)=C[C@H]1c1c(O)cc(CC)cc1O` [Compound 12a, (1′R,2′R)-4-Ethyl-5′-methyl-2′-(prop-1-en-2-yl)-1′,2′,3′,4′-tetra-hydro-[1,1′-biphenyl]-2,6-diol], the IC50 turned out to be 22.6 ± 1.6 µM with BV-2 cellular viability and 2.5 ± 0.3 µM in test [1].

For `C=C(C)[C@@H]1CCC(C)=C[C@H]1c1c(O)cc(CCCCCCCCCCCC)cc1O` [Compound 12h, (1′R,2′R)-4-Dodecyl-5′-methyl-2′-(prop-1-en-2-yl)-1′,2′,3′,4′-tet-rahydro-[1,1′-biphenyl]-2,6-diol], the IC50 (in the test on BV-2 cellular viability; in test [1]) was over 200 µM in each case.

Regarding `C=C(C)[C@@H]1CCC(C)=C[C@H]1c1c(O)cc(CCCCCCCC)cc1O` [Compound 12g, (1′R,2′R)-5′-Methyl-4-octyl-2′-(prop-1-en-2-yl)-1′,2′,3′,4′-tetra-hydro-[1,1′-biphenyl]-2,6-diol], the 50% inhibitory concentration (IC50) in the test on BV-2 cellular viability was 26.2 ± 5.2 µM; in test [1] it was 174 ± 33 µM.

Take `C=C(C)[C@@H]1CCC(C)=C[C@H]1c1c(O)cc(CCCCC)cc1OCC` [Compound 2a, (1′ R,2′R)-6-Ethoxy-5′-methyl-4-pentyl-2′-(prop-1-en-2-yl)-1′,2′,3′,4′-tetrahydro-[1,1′-biphenyl]-2-ol]: the results for the IC50 (in the test on BV-2 cellular viability; in test [1]) were 176 ± 7.4 µM and 167 ± 16.9 µM, respectively.

Turning to `C=C(C)[C@@H]1CCC(C)=C[C@H]1c1c(O)cc(C(C)n2ccnc2)cc1O` (stereo partly drawn) [Compound 19c, (1′R,2′R)-4-(1-(1H-Imidazole-1-yl)ethyl)-5′-methyl-2′-(prop-1-en-2-yl)-1′,2′,3′,4′-tetrahydro-[1,1′-biphenyl]-2,6-diol], the IC50 in the test with BV-2 cellular viability amounted to 32.6 ± 3.2 µM; in test [1], 4.4 ± 0.5 µM.

For the compound `C#CCOc1cc(CCCCC)cc(OCC#C)c1[C@@H]1C=C(C)CC[C@H]1C(=C)C` [Compound 5b, (1R,2R)-5-Methyl-4′-pentyl-2-(prop-1-en-2-yl)-2′,6′-bis(prop-2-yn-1-yloxy)-1,2,3,4-tetrahydro-1,1′-biphenyl], the IC50 (with BV-2 cellular viability; in test [1]) was over 200 µM each time.

Take `C=CCOc1cc(CCCCC)cc(O)c1[C@@H]1C=C(C)CC[C@H]1C(=C)C` [Compound 4a, (1′R,2′R)-6-(Allyloxy)-5′-methyl-4-pentyl-2′-(prop-1-en-2-yl)-1′,2′,3′,4′-tetrahydro-[1,1′-biphenyl]-2-ol]: the IC50 in the test on BV-2 cellular viability worked out at 71.5 ± 9.4 µM; in test [1] it was 59.8 ± 15.6 µM.

Regarding `C=C(C)[C@@H]1CCC(C)=C[C@H]1c1c(OC)cc(CCCCC)cc1OC` [Compound 1b, (1R,2R)-2′,6′-Dimethoxy-5-methyl-4′-pentyl-2-(prop-1-en-2-yl)-1,2,3,4-tetrahydro-1,1′-biphenyl], the half-maximal inhibitory concentration (IC50) (with BV-2 cellular viability; in test [1]) was over 200 µM in each case.

As to `C=C(C)[C@@H]1CCC(C)=C[C@H]1c1c(OCCC)cc(CCCCC)cc1OCCC` [Compound 3b, (1R,2R)-5-Meth-yl-4′-pentyl-2-(prop-1-en-2-yl)-2′,6′-dipropoxy-1,2,3,4-tetrahydro-1,1′-biphenyl], the IC50 (in the test with BV-2 cellular viability; in test [1]) was over 200 µM in each case.

On to `C=C(C)[C@@H]1CCC(C)=C[C@H]1c1c(O)cc(CCCCCC)cc1O` [Compound 12e, (1′R,2′R)-4-Hexyl-5′-methyl-2′-(prop-1-en-2-yl)-1′,2′,3′,4′-tetra-hydro-[1,1′-biphenyl]-2,6-diol], for which the 50% inhibitory concentration (IC50) in the test on BV-2 cellular viability was found to be 19 ± 0.5 µM; in test [1] it was 2.1 ± 0.4 µM.

In the case of `C=C(C)[C@@H]1CCC(C)=C[C@H]1c1c(O)cc(CCCC)cc1O` [Compound 12c], the IC50 with BV-2 cellular viability was 11.1 ± 2.8 µM; in test [1], 5 ± 3.5 µM.
